According to article PMC11191600 (ACS chemical neuroscience, 2024):
pIC50, pKi: −log10 of the molar value. Values after ≈ are worked out from the molar mass of the structure shown. Where two headings read alike, the source gives them in different places.

How the values were obtained:
[1] = target: T1, human dopamine D4.4 receptor (Homo sapiens, UniProt P21917); test: Human dopamine D4.4 receptor radioligand binding assay (Eurofins); design: % Inhibition at D4.4: dose or concentration left out as unconfirmed; conditions: for % Inhibition at 10 μM D4.4: [3H]Spiperone binding; for inhibition at 10 µM: read-out: % Inhibition at 10 μM D4.4
T1 sequence (P21917 1-419): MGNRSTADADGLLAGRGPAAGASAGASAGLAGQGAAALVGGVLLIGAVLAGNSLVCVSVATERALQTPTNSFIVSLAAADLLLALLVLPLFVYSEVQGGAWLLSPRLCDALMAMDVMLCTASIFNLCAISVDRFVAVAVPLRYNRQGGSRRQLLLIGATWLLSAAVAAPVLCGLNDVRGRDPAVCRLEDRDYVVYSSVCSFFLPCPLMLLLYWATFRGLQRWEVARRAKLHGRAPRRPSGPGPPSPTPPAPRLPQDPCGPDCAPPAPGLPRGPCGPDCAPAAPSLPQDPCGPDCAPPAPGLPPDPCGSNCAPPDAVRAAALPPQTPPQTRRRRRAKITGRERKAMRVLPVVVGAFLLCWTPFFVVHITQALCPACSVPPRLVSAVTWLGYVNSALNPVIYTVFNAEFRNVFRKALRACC

[2] = target: human dopamine D2S receptor (Homo sapiens, UniProt P14416); test: Human dopamine D2S receptor radioligand binding assay (Eurofins); conditions: for % Inhibition at 10 μM D2S: [3H]Spiperone binding, Eurofins Discovery
[3] = target: Human recombinant dopamine D2L receptor (Homo sapiens, UniProt P14416); test: Human dopamine D2L receptor radioligand binding assay (Eurofins); conditions: for % Inhibition at 10 μM D2L: [3H]Spiperone binding, Eurofins Discovery
[4] = target: human dopamine D3 receptor (Homo sapiens, UniProt P35462); test: Human dopamine D3 receptor radioligand binding assay (Eurofins); conditions: for % Inhibition at 10 μM D3: [3H]Spiperone binding, Eurofins Discovery
[5] = target: human dopamine D1 receptor (Homo sapiens, UniProt P21728); test: Human dopamine D1 receptor radioligand binding assay (Eurofins); conditions: for % Inhibition at 10 μM D1: [3H]SCH-23390 binding, Eurofins Discovery
[6] = Plasma protein binding, equilibrium dialysis, human plasma; assay type: in vitro ADME
[7] = Plasma protein binding, equilibrium dialysis, rat plasma; assay type: in vitro ADME
[8] = Microsomal stability, human hepatic microsomes; assay type: in vitro ADME; conditions: predicted hepatic clearance
[9] = Microsomal stability, rat hepatic microsomes; assay type: in vitro ADME; conditions: predicted hepatic clearance
[10] = In vivo pharmacokinetics, intravenous cassette dosing in rats; design: species or system male Sprague-Dawley rats; conditions: rat; for AUC (area under the curve) / CLp (plasma clearance) / Vss (volume of distribution at steady-state) / t1/2 (terminal phase plasma half-life): intravenous 0.2 mg/kg, cassette; for in vivo clearance relative to hepatic blood flow (superhepatic clearance): intravenous dosing
[11] = Kinetic solubility (shake flask, McIlvaine buffer); assay type: physicochemical; conditions: for Solubility pH = 2.2 / Solubility pH = 6.8: kinetic, 100 µM, 18 hours room temperature; for Solubility pH = 2.2: McIlvaine buffer pH 2.2; for Solubility pH = 6.8: McIlvaine buffer pH 6.8; for solubility at 18 h: McIlvaine buffer, kinetic from dmso stock
[12] = Metabolite profiling in human hepatocytes; assay type: in vitro ADME; conditions: 4 h
[13] = Metabolite profiling in rat hepatocytes; assay type: in vitro ADME; conditions: 4 h
[14] = read-out: D4.4 IC50, Eurofins Discovery
[15] = read-out: D4.4 Ki, Eurofins Discovery

Sequence of human dopamine D1 receptor (P21728 whole entry): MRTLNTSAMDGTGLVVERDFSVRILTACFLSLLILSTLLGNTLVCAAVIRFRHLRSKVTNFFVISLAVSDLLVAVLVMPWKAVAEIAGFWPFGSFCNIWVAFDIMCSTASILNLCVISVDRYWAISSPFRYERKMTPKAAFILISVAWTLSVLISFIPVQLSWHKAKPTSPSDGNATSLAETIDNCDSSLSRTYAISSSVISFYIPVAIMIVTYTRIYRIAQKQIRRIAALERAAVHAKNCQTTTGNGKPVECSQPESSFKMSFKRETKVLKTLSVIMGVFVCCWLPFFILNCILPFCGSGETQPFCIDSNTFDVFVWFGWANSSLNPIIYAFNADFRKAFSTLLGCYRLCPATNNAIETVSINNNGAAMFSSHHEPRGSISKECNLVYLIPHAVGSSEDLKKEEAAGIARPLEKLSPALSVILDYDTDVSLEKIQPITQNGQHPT
Sequence of human dopamine D2S receptor (P14416 1-414 isoform P14416-2): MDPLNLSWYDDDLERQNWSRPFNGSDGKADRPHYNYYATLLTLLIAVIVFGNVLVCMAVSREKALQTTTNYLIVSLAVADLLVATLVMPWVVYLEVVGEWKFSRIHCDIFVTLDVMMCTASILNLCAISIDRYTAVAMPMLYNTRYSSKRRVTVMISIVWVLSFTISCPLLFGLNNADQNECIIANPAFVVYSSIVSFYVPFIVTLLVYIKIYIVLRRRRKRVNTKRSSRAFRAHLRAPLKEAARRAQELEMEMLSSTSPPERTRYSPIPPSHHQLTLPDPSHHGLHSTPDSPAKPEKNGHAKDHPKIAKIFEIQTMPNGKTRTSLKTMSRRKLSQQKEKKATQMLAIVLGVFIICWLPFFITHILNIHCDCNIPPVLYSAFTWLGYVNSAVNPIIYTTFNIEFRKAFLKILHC
Sequence of Human recombinant dopamine D2L receptor (P14416 whole entry): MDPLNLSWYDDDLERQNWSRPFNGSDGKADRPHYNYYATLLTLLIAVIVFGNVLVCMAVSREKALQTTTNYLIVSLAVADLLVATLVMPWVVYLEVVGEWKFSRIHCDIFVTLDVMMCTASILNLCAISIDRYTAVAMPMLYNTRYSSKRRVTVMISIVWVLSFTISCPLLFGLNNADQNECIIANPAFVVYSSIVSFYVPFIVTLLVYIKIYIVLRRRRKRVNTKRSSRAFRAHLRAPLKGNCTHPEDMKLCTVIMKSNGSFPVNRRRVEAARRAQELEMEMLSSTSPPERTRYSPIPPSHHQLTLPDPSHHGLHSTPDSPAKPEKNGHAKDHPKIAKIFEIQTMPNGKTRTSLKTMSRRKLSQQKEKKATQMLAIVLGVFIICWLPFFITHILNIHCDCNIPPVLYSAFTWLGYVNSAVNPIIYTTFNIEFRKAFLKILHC
Sequence of human dopamine D3 receptor (P35462 whole entry): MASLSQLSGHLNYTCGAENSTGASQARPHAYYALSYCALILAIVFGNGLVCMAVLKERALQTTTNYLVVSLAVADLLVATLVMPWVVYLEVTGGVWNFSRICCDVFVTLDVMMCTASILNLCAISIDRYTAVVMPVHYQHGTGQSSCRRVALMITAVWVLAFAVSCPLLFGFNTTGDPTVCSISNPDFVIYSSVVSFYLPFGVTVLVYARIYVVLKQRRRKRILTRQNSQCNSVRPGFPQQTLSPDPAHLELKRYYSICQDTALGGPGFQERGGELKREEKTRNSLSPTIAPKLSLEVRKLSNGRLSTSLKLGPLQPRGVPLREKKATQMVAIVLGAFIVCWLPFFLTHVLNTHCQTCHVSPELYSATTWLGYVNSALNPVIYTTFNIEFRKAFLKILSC

Compound | % Inhibition at 10 μM D4.4 ([1]; Eurofins Discovery) [%] | pIC50 [1, 14] | pKi [1, 15] | % Inhibition at 10 μM D2S [2] [%] | % Inhibition at 10 μM D2L [3] [%] | % Inhibition at 10 μM D3 [4] [%] | % Inhibition at 10 μM D1 [5] [%] | fu,plasma human (fraction unbound) [6] | fu,plasma rat (fraction unbound) [7] | CLH human (hepatic clearance) [8] [mL/min/kg] | CLH rat (hepatic clearance) [9] [mL/min/kg] | Solubility pH = 2.2 [11] [µM] | Solubility pH = 6.8 [11] [µM] | further results
Cc1ccc(C(=O)N2CC3(CCN(Cc4ccc(F)c(F)c4)CC3)C2)cc1C [Compound 4] | 88 | 5.55 | 6.60 | 8 | 9 | 9 | 21 | 0.01 | 0.03 | 16.9 | 59.1 | 95.3 | 88.9 | AUC (area under the curve) [10]: 28.7 ng·h/mL; CLp (plasma clearance) [10]: 116 mL/min/kg; Vss (volume of distribution at steady-state) [10]: 5.52 L/kg; t1/2 (terminal phase plasma half-life) [10]: 1.05 h; in vivo clearance relative to hepatic blood flow (superhepatic clearance) [10]: > 100 % Qh
Cc1ccc(C(=O)N2CC3(CCN(Cc4c[nH]c5cc(F)ccc45)CC3)C2)cc1C [Compound 5] | 94 | 6.70 | 7.25 | 25 | 24 | 27 | 35 |  |  |  |  | 83.4 | 87.0 | 
Cc1ccc(C(=O)N2CC3(CCN(Cc4n[nH]c5cc(F)ccc45)CC3)C2)cc1C [Compound 6] | 90 | 6.82 | 7.37 | 15 | 3 | 25 | −4 |  |  |  |  | 89.4 | 83.1 | 
Cc1ccc(C(=O)N2CC3(CCN(Cc4ccc(Cl)c(Cl)c4)CC3)C2)cc1C [Compound 9] | 91 | 7.09 | 7.66 | 25 | 24 | 62 | 24 |  |  |  |  | 84.2 | 31.6 | 
COc1ncc(CN2CCC3(CC2)CN(C(=O)c2ccc(C)c(C)c2)C3)cc1F [Compound 10] |  |  |  |  |  |  |  |  |  |  |  |  |  | inhibition at 10 µM [1]: 66%
Cc1ccc(C(=O)N2CC3(CCN(Cc4cn(C)c5ccccc45)CC3)C2)cc1C [Compound 12] |  |  |  |  |  |  |  |  |  |  |  |  |  | pIC50 [1]: 6.55; pKi [1]: 7.12; inhibition at 10 µM [1]: 92%; inhibition at 10 µM ([2]; read-out: % Inhibition at 10 μM D2S): 24%; inhibition at 10 µM ([3]; read-out: % Inhibition at 10 μM D2L): 16%; inhibition at 10 µM ([4]; read-out: % Inhibition at 10 μM D3): 19%; inhibition at 10 µM ([5]; read-out: % Inhibition at 10 μM D1): 27%; solubility at 18 h ([11]; pH 2.2, aqueous buffer): 88.3 µM (≈ 35.5 µg/mL); solubility at 18 h ([11]; pH 6.8, aqueous buffer): 87.4 µM (≈ 35.1 µg/mL)
Cc1ccc(S(=O)(=O)N2CC3(CCN(Cc4c[nH]c5cc(F)ccc45)CC3)C2)cc1 [Compound 34] | 94 | 6.92 | 7.48 | 17 | 50 | 49 | 47 |  |  |  |  |  |  | 
Cc1ccc(C(=O)N2CCC3(CCN(Cc4c[nH]c5cc(F)ccc45)CC3)C2)cc1C [Compound 42, (3,4-dimethylphenyl)(8-[(6-fluoro-1H-indol-3-yl)methyl)-2,8-diazaspiro[4.5]decan-2-yl)methanone] |  |  |  |  |  |  |  |  |  |  |  |  |  | % Inhibition at D4.4 ([1]; screened at Eurofins): 44%

The next lines start with results.

% Inhibition at 10 μM D4.4 ([1]; Eurofins Discovery) [%] | pIC50 [1, 14] | pKi [1, 15] | % Inhibition at 10 μM D2S [2] [%] | % Inhibition at 10 μM D2L [3] [%] | % Inhibition at 10 μM D3 [4] [%] | % Inhibition at 10 μM D1 [5] [%] | fu,plasma human (fraction unbound) [6] | fu,plasma rat (fraction unbound) [7] | CLH human (hepatic clearance) [8] [mL/min/kg] | CLH rat (hepatic clearance) [9] [mL/min/kg] | Solubility pH = 2.2 [11] [µM] | Solubility pH = 6.8 [11] [µM] | Compound | further results
85 | 6.00 | 6.57 |  |  |  |  |  |  |  |  | 90.5 | 88.2 | Cc1ccc(C(=O)N2CC3(CCN(Cc4c[nH]c5cc(F)ccc45)CC3C)C2)cc1C (stereo not drawn) [Compound 13] | 
89 | 5.72 | 6.28 |  |  |  |  |  |  |  |  |  |  | Cc1ccc(C(=O)N2CC3(CCN(Cc4c[nH]c5cc(F)ccc45)C(C)C3)C2)cc1C (stereo not drawn) [Compound 14] | 
92 | 7.09 | 7.64 | 14 | 23 | 30 | 21 |  |  |  |  |  |  | O=C(c1ccc(Cl)cc1Cl)N1CC2(CCN(Cc3c[nH]c4cc(F)ccc34)CC2)C1 [Compound 19] | 
95 | 7.08 | 7.64 | 12 | 18 | 14 | 16 | 0.10 | 0.23 | 13.7 | 36.2 | 86.4 | 82.7 | O=C(c1ccc2c(c1)OCO2)N1CC2(CCN(Cc3c[nH]c4cc(F)ccc34)CC2)C1 [Compound 20] | AUC (area under the curve) [10]: 26.4 ng·h/mL; CLp (plasma clearance) [10]: 126 mL/min/kg; Vss (volume of distribution at steady-state) [10]: 44.4 L/kg; t1/2 (terminal phase plasma half-life) [10]: 4.55 h; in vivo clearance relative to hepatic blood flow (superhepatic clearance) [10]: > 100 % Qh
49 |  |  |  |  |  |  |  |  |  |  |  |  | O=C(c1cc(Cl)cc(Cl)c1)N1CC2(CCN(Cc3c[nH]c4cc(F)ccc34)CC2)C1 [Compound 28] | 
99 | 7.21 | 7.77 | 5 | 20 | 13 | 27 | 0.05 | 0.15 | 17.3 | 49.2 | 91.9 | 85.3 | Cc1ccc(C(=O)N2CC3(CCN(Cc4c[nH]c5cc(F)ccc45)CC3)C2)cc1 [Compound 29] | 
92 | 6.31 | 6.85 | 18 | 18 | 12 | 10 | 0.06 | 0.14 | 14.7 | 46.2 | 91.2 | 87.0 | Cc1cccc(C(=O)N2CC3(CCN(Cc4c[nH]c5cc(F)ccc45)CC3)C2)c1 [Compound 32] | 
93 | 6.68 | 7.23 | 0 | −7 | 11 | 9 | 0.19 | 0.26 | 16.0 | 39.0 | 92.9 | 87.7 | Cc1ccccc1C(=O)N1CC2(CCN(Cc3c[nH]c4cc(F)ccc34)CC2)C1 [Compound 33] | AUC (area under the curve) [10]: 27.0 ng·h/mL; CLp (plasma clearance) [10]: 123 mL/min/kg; Vss (volume of distribution at steady-state) [10]: 36.9 L/kg; t1/2 (terminal phase plasma half-life) [10]: 4.02 h; in vivo clearance relative to hepatic blood flow (superhepatic clearance) [10]: > 100 % Qh; piperidine N-dealkylation metabolite, relative percentage [12]: 6.3%; turnover in hepatocytes [12]: low turnover; parent compound remaining postincubation ([12]; LC/MS relative percentage): 87.9%; piperidine N-dealkylation metabolite, relative percentage [13]: 32.4%; turnover in hepatocytes [13]: moderate turnover; parent compound remaining postincubation ([13]; LC/MS relative percentage): 65.8%
